Data as given in publication PMC12444563 (ACS Omega, 2025).
“Also recorded” adds a separate entry of the source. Starred links: 1 amine or outer side, 2 acyl side, 3 side chain; linkers in the order of their positions; H or OH if unused. Non-standard residues stand in square brackets, D forms with d. Residues, ends and D or L forms follow the SMILES beside them. *: point of attachment. Paclitaxel(2'-OCO-DMEDA) = CC(=O)O[C@H]1C(=O)[C@@]2(C)[C@H]([C@H](OC(=O)c3ccccc3)[C@]3(O)C[C@H](OC(=O)[C@H](OC(=O)N(C)CCN(C)*)[C@@H](NC(=O)c4ccccc4)c4ccccc4)C(C)=C1C3(C)C)[C@]1(OC(C)=O)CO[C@@H]1C[C@@H]2O; Dolaproine = CO[C@@H]([C@@H]1CCCN1)[C@@H](C)C(=O)O; Dil = CC[C@H](C)[C@H](NC)[C@@H](CC(=O)O)OC; Fmoc = O=C(OCC1c2ccccc2-c2ccccc21)*; PABC = O=C(OCc1ccc(N[*:1])cc1)[*:2]; X1 = C[C@@H](N*)[C@@H](O)c1ccccc1; NMeV = CN[C@H](C(=O)O)C(C)C

What was measured:
U87MG cancer cell lines = system: U87MG cancer cell lines; set-up: method as in PMID 37492088; details: short-contact time antiproliferative assay; earlier work of the authors; read-out: IC50 against U87MG cancer cell lines; cited from earlier work
[1] = human plasma (Pooled; Innovative Research); details: 37 °C, up to 4 hours
[2] = rat liver S9 fraction (male, pooled, Xeno-tech); details: 37 °C, up to 90 minutes
[3] = human liver S9 fraction (male, pooled, Xeno-tech); details: 37 °C, up to 90 minutes
[4] = rat plasma (Strain: Sprague Dawley; Innovative Research); details: 37 °C, up to 4 hours
[5] = system: bovine spleen Cathepsin B (SigmaAldrich C6286, ≥10 units/mg protein); assay: activated Cathepsin B (1.12 u/mL) in 20 mM NaOAc, 1 mM EDTA, pH 5.4, with L-cysteine; details: 37 °C, up to 24 h
[6] = system: Cathepsin B (SigmaAldrich C6286); assay: bovine spleen Cathepsin B in 20 mM NaOAc, 1 mM EDTA, pH 5.4, activated with L-cysteine; details: 37 °C, up to 24 h

| Compound | IC50 (U87MG cancer cell lines) [nM] | not cleaved [1] | not cleaved [2] | not cleaved [3] | not cleaved [4] | cleaved bond [5] | fragment found [5] | not cleaved [5] | fragment found [6] |
| --- | --- | --- | --- | --- | --- | --- | --- | --- | --- |
| CC[C@H](C)[C@@H]([C@@H](CC(=O)N1CCC[C@H]1[C@H](OC)[C@@H](C)C(=O)N[C@H](C)[C@@H](O)c1ccccc1)OC)N(C)C(=O)[C@@H](NC(=O)[C@@H](NC)C(C)C)C(C)C [MMAE, monomethyl auristatin E] (H-[NMeV]V[Dil][Dolaproine]-X1) | 2130 | – | – | – | – | – | – | – | – |
| Fmoc-GPLG-PABC-diamine-PTX | – | 100% of residual compound after 4 h (Table S7: 112.1% at 240 min) | more than 94% intact after 1.5 h (Table S7: 94.464% at 90 min) | more than 94% intact after 1.5 h (Table S7: 94.986% at 90 min) | 100% of residual compound after 4 h (Table S7: 103.0% at 240 min) | Gly-PABC, first_seen, 2 min | diamine-PTX (fragment II), 2 min; also recorded: free PTX, 24 h | no cleavage between Gly and Pro residues was observed throughout the experiment time | – |
| Fmoc-VA-PABC-diamine-PTX | – | 107.1% remaining at 240 min | – | – | 108.0% remaining at 240 min | – | PABC-diamine-PTX (fragment I); also recorded: diamine-PTX (fragment II) | – | PABC-diamine-PTX (fragment I) |
| Fmoc-GFLG-PABC-diamine-PTX (Fmoc-GFLG[PABC]-{Paclitaxel(2'-OCO-DMEDA)}; SMILES CC(=O)O[C@H]1C(=O)[C@@]2(C)[C@H]([C@H](OC(=O)c3ccccc3)[C@]3(O)C[C@H](OC(=O)[C@H](OC(=O)N(C)CCN(C)C(=O)OCc4ccc(NC(=O)CNC(=O)[C@H](CC(C)C)NC(=O)[C@H](Cc5ccccc5)NC(=O)CNC(=O)OCC5c6ccccc6-c6ccccc65)cc4)[C@@H](NC(=O)c4ccccc4)c4ccccc4)C(C)=C1C3(C)C)[C@]1(OC(C)=O)CO[C@@H]1C[C@@H]2O) | – | 93.9% remaining at 240 min | – | 95.232% remaining at 90 min | 103.3% remaining at 240 min | Gly-Phe, 2 min; also recorded: Gly-PABC | diamine-PTX (fragment II) | – | – |
| Fmoc-VCit-PABC-diamine-PTX | – | – | – | – | 118.1% remaining at 240 min | – | PABC-diamine-PTX (fragment I); also recorded: diamine-PTX (fragment II) | – | PABC-diamine-PTX (fragment I) |
